The source of these data is US20100310518A1, “Combinations of Flubendiamide and Beneficial Species” (Bayer CropScience AG, priority 2009, published 2010).

Assay [1] relates to Myzus persicae. The assay is described as follows: Myzus persicae test (drench application) on cabbage plants, with predatory bugs added. It counts as in vivo. The following applies: flubendiamide alone, 1 mg of ai/l soil, cabbage plants (Brassica oleracea). The text has this:
The expected action for a given combination of two active compounds can be calculated as follows, using the formula of S. R. Colby, Weeds 15 (1967), 20-22:
• X is the kill rate, expressed as % of the untreated control, when employing active compound A at an application rate of m g/ha, m mg of ai/plant or in a concentration of m ppm, • Y is the kill rate, expressed as % of the untreated control, when employing the beneficial species at an application rate of n animals or n units, and • E is the kill rate, expressed as % of the untreated control, when employing active compound
A and beneficial species B at an application rate of m ppm, m mg of ai/plant or g/ha and n animals or units,
If the actual insecticidal or acaricidal kill rate exceeds the calculated value, the kill of the combination is superadditive, i.e. a synergistic effect is present. In this case, the actually observed kill rate must exceed the value calculated using the above formula for the expected kill rate (E). […]
After the application, the predatory bugs (Macrolophus caliginosus) are added in a defined amount. After the desired period of time, the kill of the pest in % is determined 100% means that all of the aphids have been destroyed; 0% means that none of the aphids have been destroyed.
The kill rates determined are entered into Colby's formula (see above).

In assay [2] the test system is Plutella xylostella. The assay is described as follows: Plutella xylostella test (drench application on rock wool). It is filed as in vivo. The following applies: for Kill in % after 7^d: 1 mg of ai/plant, drench, cabbage plants. The procedure:
To produce a suitable preparation of active compound, 1 part by weight of active compound is mixed with the stated amounts of solvent and emulsifier, and the concentrate is diluted with water to the desired concentration.
Cabbage plants (Brassica oleracea) are watered with an active compound preparation of the desired concentration and infected with larvae of the diamondback moth (Plutella xylostella).
After the desired period of time, the kill of the pest in % is determined 100% means that all caterpillars have been killed; 0% means that none of the caterpillars have been killed.

Structures are written as SMILES.

Turning to `Cc1cc(C(F)(C(F)(F)F)C(F)(F)F)ccc1NC(=O)c1cccc(I)c1C(=O)NC(C)(C)CS(C)(=O)=O` [flubendiamide, 3-iodo-N′-(2-mesyl-1,1-dimethylethyl)-N-{4-[1,2,2,2-tetrafluoro-1-(trifluoromethyl)ethyl]-o-tolyl}phthalamide], the “Kill in % after 4^h” value in assay [1] is listed as 45%. In addition, the systemic efficacy result in assay [2] (applied to soil-less substrates) is recorded as “surprisingly good systemic efficacy”. For the same compound, the “Kill in % after 7^d” value is recorded as 97% in assay [2] (on rock wool) and 40% in assay [2] (on sandy loam (prior art)).
